Assay results as given in article PMC9684079, “Pharmacological targeting of glutamatergic neurons within the brainstem for weight reduction” (Nature Metabolism, 2022).

Experiments:
[1] = target: T1, Protein Serine/Threonine Kinase, IKK-1 (Homo sapiens, UniProt O15111); experiment: biochemical; parameters: Cerep/Eurofins selectivity panel, enzymes, per cent inhibition at 10 uM; details: read-out: % Inhibition
T1 construct: gene CHUK

[2] = target: T2, Protein Serine/Threonine Kinase, ATK1 (PRKBA) (Homo sapiens, UniProt P31749); experiment: biochemical; parameters: Cerep/Eurofins selectivity panel, enzymes, per cent inhibition at 10 uM; details: read-out: % Inhibition
T2 construct: gene AKT1

Adenosine A1 = target: T3, Adenosine A1 (Homo sapiens, UniProt P30542); experiment: biochemical; parameters: Cerep/Eurofins selectivity panel, receptors, channels and transporters, per cent inhibition at 10 uM; details: read-out: % Inhibition
T3 construct: gene ADORA1
T3 sequence (P30542 whole entry): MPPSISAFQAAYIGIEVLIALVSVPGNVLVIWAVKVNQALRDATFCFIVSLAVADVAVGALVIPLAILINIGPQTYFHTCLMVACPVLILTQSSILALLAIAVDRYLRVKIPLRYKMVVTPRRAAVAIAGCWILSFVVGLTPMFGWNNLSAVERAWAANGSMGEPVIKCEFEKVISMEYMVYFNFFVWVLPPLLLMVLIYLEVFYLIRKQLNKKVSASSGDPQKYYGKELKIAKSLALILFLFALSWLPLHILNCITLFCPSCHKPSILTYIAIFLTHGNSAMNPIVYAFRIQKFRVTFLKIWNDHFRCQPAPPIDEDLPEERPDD

Muscarinic M3 = target: T4, Muscarinic M3 (Homo sapiens, UniProt P20309); experiment: biochemical; parameters: Cerep/Eurofins selectivity panel, receptors, channels and transporters, per cent inhibition at 10 uM; details: read-out: % Inhibition
T4 construct: gene CHRM3

Vasopressin V2 = target: T5, Vasopressin V2 (Homo sapiens, UniProt P30518); experiment: biochemical; parameters: Cerep/Eurofins selectivity panel, receptors, channels and transporters, per cent inhibition at 10 uM; details: read-out: % Inhibition
T5 construct: gene AVPR2
T5 sequence (P30518 whole entry): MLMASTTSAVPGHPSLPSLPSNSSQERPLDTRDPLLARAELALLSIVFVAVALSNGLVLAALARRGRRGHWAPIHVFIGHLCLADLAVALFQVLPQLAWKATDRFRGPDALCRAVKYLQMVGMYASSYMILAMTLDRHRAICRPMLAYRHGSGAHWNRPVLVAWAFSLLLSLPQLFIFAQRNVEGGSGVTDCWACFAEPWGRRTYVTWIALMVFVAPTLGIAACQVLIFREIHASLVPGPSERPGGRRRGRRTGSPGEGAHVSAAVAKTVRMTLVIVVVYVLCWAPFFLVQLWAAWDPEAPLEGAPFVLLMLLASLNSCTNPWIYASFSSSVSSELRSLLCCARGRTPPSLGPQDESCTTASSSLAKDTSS

[3] = target: T6, Peptidase, Tumor necrosis factorα Converting enzyme (TACE) (Homo sapiens, UniProt P78536); experiment: biochemical; parameters: Cerep/Eurofins selectivity panel, enzymes, per cent inhibition at 10 uM; details: read-out: % Inhibition
T6 construct: gene ADAM17

Phospholipase PLA2-I = target: T7, Phospholipase PLA2-I (Sus scrofa, UniProt P00592); experiment: biochemical; parameters: Cerep/Eurofins selectivity panel, enzymes, per cent inhibition at 10 uM; details: read-out: % Inhibition
T7 construct: gene PLA2G1B

[4] = target: T8, Nitric Oxide Synthase, inducible (iNOS) (Mus musculus, UniProt P29477); experiment: biochemical; parameters: Cerep/Eurofins selectivity panel, enzymes, per cent inhibition at 10 uM; details: read-out: % Inhibition
T8 construct: gene Nos2
T8 sequence (P29477 whole entry): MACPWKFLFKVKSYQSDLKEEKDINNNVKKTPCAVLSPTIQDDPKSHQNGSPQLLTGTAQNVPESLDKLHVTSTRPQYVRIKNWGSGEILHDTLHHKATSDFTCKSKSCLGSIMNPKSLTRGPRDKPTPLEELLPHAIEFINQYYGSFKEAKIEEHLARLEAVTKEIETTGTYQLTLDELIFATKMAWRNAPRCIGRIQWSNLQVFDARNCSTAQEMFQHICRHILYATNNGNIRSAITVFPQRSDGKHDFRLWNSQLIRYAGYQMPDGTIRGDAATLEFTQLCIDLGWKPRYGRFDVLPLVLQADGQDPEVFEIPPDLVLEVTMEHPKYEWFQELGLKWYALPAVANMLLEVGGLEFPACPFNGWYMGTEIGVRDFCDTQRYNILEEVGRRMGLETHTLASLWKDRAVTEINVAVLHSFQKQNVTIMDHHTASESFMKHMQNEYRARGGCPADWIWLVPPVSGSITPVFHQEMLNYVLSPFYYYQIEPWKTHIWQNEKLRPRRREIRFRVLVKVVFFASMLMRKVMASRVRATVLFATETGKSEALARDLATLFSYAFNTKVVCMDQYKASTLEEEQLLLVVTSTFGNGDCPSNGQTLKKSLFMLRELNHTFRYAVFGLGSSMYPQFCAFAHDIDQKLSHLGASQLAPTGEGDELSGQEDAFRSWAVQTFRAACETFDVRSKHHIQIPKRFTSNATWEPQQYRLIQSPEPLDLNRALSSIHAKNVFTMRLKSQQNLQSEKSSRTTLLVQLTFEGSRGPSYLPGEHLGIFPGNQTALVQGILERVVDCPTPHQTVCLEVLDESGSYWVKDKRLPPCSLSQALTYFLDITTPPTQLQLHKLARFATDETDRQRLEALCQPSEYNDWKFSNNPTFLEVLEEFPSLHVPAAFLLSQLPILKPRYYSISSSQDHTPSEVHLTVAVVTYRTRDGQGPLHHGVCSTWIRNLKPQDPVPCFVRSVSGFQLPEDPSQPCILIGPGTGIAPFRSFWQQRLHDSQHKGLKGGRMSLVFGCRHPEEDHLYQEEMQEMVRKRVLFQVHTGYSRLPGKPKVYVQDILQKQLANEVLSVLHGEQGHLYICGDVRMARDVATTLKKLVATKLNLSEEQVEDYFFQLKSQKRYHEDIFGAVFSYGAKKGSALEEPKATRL

Hcrtr2 = target: T9, Hcrtr2 (Homo sapiens, UniProt O43614); experiment: radioligand displacement of [3H]EMPA (weak; functional IC50 […]); assay type: binding
T9 construct: membranes from CHO-K1 cells stably expressing HCRTR2

[5] = target: Protein Serine/Threonine Kinase, MAPK3 (ERK1) (Homo sapiens, UniProt P27361); experiment: biochemical; parameters: Cerep/Eurofins selectivity panel, enzymes, per cent inhibition at 10 uM; details: read-out: % Inhibition
[6] = target: Protein Serine/Threonine Kinase, GSK3B (Homo sapiens, UniProt P49841); experiment: biochemical; parameters: Cerep/Eurofins selectivity panel, enzymes, per cent inhibition at 10 uM; details: read-out: % Inhibition
Protein Serine/Threonine Kinase, GSK3B, sequence (P49841 whole entry): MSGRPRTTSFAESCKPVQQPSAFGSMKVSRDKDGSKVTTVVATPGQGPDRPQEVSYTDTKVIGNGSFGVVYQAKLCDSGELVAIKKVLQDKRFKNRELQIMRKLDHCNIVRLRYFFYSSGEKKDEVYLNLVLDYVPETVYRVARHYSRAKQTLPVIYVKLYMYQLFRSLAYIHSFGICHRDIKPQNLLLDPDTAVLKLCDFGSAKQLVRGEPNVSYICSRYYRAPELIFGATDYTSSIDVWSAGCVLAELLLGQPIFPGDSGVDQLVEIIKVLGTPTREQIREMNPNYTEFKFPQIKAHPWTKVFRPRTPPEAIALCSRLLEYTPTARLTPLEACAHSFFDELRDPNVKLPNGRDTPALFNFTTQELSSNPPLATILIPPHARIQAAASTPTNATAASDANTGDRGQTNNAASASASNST

Peptidase, Renin = target: T10, Peptidase, Renin (Homo sapiens, UniProt P00797); experiment: biochemical; parameters: Cerep/Eurofins selectivity panel, enzymes, per cent inhibition at 10 uM; details: read-out: % Inhibition
T10 construct: gene REN
T10 sequence (P00797 whole entry): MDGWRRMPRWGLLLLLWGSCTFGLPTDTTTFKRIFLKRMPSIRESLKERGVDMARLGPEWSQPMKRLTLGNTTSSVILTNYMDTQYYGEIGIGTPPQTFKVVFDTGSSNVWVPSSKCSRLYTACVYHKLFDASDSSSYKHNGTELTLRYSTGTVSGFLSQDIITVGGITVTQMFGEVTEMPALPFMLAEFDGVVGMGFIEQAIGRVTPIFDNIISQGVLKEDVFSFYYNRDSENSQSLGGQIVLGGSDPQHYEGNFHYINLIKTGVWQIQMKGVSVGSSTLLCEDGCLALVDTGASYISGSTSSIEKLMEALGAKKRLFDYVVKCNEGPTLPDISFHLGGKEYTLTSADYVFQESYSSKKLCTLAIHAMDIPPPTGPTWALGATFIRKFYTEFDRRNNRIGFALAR

Monoamine Oxidase MAO-A = target: T11, Monoamine Oxidase MAO-A (Homo sapiens, UniProt P21397); experiment: biochemical; parameters: Cerep/Eurofins selectivity panel, enzymes, per cent inhibition at 10 uM; details: read-out: % Inhibition
T11 construct: gene MAOA

5-Lipoxygenase = target: T12, 5-Lipoxygenase (Homo sapiens, UniProt P09917); experiment: biochemical; parameters: Cerep/Eurofins selectivity panel, enzymes, per cent inhibition at 10 uM; details: read-out: % Inhibition
T12 construct: gene ALOX5

Cyclooxygenase COX-2 = target: T13, Cyclooxygenase COX-2 (Homo sapiens, UniProt P35354); experiment: biochemical; parameters: Cerep/Eurofins selectivity panel, enzymes, per cent inhibition at 10 uM; details: read-out: % Inhibition
T13 construct: gene PTGS2
T13 sequence (P35354 whole entry): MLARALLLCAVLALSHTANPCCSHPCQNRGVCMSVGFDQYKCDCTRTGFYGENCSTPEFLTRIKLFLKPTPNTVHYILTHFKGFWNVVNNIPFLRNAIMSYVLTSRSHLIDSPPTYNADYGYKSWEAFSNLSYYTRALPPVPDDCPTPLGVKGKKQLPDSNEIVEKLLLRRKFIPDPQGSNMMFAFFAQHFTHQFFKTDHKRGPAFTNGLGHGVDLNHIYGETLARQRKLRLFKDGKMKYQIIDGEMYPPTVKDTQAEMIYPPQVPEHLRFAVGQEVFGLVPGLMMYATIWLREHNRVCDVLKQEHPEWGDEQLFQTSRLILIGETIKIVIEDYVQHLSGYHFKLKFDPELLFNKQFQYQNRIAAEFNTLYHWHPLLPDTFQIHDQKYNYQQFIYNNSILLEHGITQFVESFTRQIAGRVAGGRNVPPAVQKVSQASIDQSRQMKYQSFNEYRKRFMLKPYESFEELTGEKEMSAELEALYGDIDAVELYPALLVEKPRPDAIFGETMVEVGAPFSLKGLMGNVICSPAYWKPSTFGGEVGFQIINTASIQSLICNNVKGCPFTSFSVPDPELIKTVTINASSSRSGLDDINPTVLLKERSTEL

[7] = target: T14, Peptidase, Matrix metalloprotease-13 (MMP-13) (Homo sapiens, UniProt P45452); experiment: biochemical; parameters: Cerep/Eurofins selectivity panel, enzymes, per cent inhibition at 10 uM; details: read-out: % Inhibition
T14 construct: gene MMP13

[8] = target: T15, Protein Tyrosine Kinase, Insulin receptor (Homo sapiens, UniProt P06213); experiment: biochemical; parameters: Cerep/Eurofins selectivity panel, enzymes, per cent inhibition at 10 uM; details: read-out: % Inhibition
T15 construct: gene INSR
T15 sequence (P06213 whole entry): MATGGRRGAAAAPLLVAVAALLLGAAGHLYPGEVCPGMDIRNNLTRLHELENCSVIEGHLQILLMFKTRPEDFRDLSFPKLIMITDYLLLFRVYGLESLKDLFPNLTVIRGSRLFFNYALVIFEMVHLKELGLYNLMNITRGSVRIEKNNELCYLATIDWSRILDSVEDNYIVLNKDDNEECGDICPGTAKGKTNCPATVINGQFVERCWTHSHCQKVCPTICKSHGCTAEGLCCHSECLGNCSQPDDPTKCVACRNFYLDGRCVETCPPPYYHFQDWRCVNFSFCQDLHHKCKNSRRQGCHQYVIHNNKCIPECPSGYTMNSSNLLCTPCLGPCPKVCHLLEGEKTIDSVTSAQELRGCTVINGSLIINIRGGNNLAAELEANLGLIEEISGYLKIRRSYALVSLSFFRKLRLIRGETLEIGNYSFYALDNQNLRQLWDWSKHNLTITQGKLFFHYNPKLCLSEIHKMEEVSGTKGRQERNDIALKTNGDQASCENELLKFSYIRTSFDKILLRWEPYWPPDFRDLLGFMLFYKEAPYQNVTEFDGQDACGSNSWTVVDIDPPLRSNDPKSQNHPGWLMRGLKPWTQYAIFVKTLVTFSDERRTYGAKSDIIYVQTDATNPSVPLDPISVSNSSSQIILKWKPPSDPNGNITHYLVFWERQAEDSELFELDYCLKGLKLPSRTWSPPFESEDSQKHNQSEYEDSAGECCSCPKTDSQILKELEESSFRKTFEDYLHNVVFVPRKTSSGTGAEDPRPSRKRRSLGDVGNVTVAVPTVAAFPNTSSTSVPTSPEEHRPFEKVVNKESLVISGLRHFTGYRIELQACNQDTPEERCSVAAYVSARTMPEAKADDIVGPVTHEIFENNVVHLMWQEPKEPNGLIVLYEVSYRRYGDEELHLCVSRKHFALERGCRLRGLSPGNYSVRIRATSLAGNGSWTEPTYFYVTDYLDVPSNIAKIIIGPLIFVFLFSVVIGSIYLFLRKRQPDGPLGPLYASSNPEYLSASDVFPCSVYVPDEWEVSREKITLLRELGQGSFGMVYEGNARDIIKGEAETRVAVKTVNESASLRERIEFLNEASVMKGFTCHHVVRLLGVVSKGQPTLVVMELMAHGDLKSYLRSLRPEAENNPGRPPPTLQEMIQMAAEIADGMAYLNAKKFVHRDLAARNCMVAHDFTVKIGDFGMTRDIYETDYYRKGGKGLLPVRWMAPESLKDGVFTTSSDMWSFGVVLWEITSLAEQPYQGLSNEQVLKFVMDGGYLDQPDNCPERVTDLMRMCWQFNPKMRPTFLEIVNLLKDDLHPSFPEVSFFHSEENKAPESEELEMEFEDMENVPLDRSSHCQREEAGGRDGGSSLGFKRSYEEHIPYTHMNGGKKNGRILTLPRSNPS

Phosphodiesterase PDE5 = target: T16, Phosphodiesterase PDE5 (Homo sapiens, UniProt O76074); experiment: biochemical; parameters: Cerep/Eurofins selectivity panel, enzymes, per cent inhibition at 10 uM; details: read-out: % Inhibition
T16 construct: gene PDE5A

[9] = target: Protein Tyrosine Kinase, ERBB2 (HER2) (Homo sapiens, UniProt P04626); experiment: biochemical; parameters: Cerep/Eurofins selectivity panel, enzymes, per cent inhibition at 10 uM; details: read-out: % Inhibition
[10] = target: Protein Tyrosine Kinase, FES (Homo sapiens, UniProt P07332); experiment: biochemical; parameters: Cerep/Eurofins selectivity panel, enzymes, per cent inhibition at 10 uM; details: read-out: % Inhibition
[11] = target: Protein Serine/Threonine Kinase, MAPK14 (p38a) (Homo sapiens, UniProt Q16539); experiment: biochemical; parameters: Cerep/Eurofins selectivity panel, enzymes, per cent inhibition at 10 uM; details: read-out: % Inhibition
Protein Serine/Threonine Kinase, MAPK14 (p38a), sequence (Q16539 whole entry): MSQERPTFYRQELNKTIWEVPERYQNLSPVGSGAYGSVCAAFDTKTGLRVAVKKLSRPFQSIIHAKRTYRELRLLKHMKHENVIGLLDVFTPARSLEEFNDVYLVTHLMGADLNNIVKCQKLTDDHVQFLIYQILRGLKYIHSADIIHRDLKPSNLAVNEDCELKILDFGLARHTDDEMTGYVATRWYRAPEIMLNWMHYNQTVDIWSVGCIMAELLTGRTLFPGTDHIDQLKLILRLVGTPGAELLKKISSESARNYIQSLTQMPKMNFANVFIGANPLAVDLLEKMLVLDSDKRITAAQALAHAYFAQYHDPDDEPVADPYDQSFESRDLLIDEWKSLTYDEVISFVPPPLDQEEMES

[12] = target: Protein Serine/Threonine Kinase, MAPK8 (JNK1) (Homo sapiens, UniProt P45983); experiment: biochemical; parameters: Cerep/Eurofins selectivity panel, enzymes, per cent inhibition at 10 uM; details: read-out: % Inhibition
Glucocorticoid = target: T17, Glucocorticoid (Homo sapiens, UniProt P04150); experiment: biochemical; parameters: Cerep/Eurofins selectivity panel, receptors, channels and transporters, per cent inhibition at 10 uM; details: read-out: % Inhibition
T17 construct: gene NR3C1

[13] = target: T18, Nitric Oxide Synthase, neuronal (nNOS) (Rattus norvegicus, UniProt P29476); experiment: biochemical; parameters: Cerep/Eurofins selectivity panel, enzymes, per cent inhibition at 10 uM; details: read-out: % Inhibition
T18 construct: gene Nos1

[14] = target: Protein Tyrosine Kinase, LYN B (Homo sapiens, UniProt P07948); experiment: biochemical; parameters: Cerep/Eurofins selectivity panel, enzymes, per cent inhibition at 10 uM; details: read-out: % Inhibition

C[C@]1(Nc2cnc(C(F)(F)F)cn2)CCC[C@@H]1NC(=O)c1ncccc1-n1nccn1 [CVN45502]
inhibition at 10 µM [1]: -14%
inhibition at 10 µM [2]: -7%
inhibition at 10 µM (Adenosine A1): 7%
inhibition at 10 µM (Muscarinic M3): -1%
inhibition at 10 µM (Vasopressin V2): -4%
inhibition at 10 µM [3]: 2%
inhibition at 10 µM (Phospholipase PLA2-I): 10%
inhibition at 10 µM [4]: 5%
Ki (Hcrtr2): 4.66 pKi
inhibition at 10 µM [5]: 8%
inhibition at 10 µM [6]: 8%
inhibition at 10 µM (Peptidase, Renin): 10%
inhibition at 10 µM (Monoamine Oxidase MAO-A): 11%
inhibition at 10 µM (5-Lipoxygenase): 14%
inhibition at 10 µM (Cyclooxygenase COX-2): -13%
inhibition at 10 µM [7]: -4%
inhibition at 10 µM [8]: -14%
inhibition at 10 µM (Phosphodiesterase PDE5): 29%
inhibition at 10 µM [9]: 0%
inhibition at 10 µM [10]: -13%
inhibition at 10 µM [11]: -1%
inhibition at 10 µM [12]: 6%
inhibition at 10 µM (Glucocorticoid): 13%
inhibition at 10 µM [13]: 22%
inhibition at 10 µM [14]: 6%
